Assay results as given in patent US20220111081A1, “COMPOSITION FOR TARGETING MEDULLARY THYROID CANCER” (University-Industry Foundation, Yonsei University, priority 2019, published 2022).

Assays:
OR51E2 [1] = molecular target: T1, OR51E2 (Homo sapiens, UniProt Q9H255); details: MZ-CRC-1 cell line, 100 μM acetate, stained after 1, 5 and 30 minutes (FIG. 10)
T1 sequence (Q9H255 1-320): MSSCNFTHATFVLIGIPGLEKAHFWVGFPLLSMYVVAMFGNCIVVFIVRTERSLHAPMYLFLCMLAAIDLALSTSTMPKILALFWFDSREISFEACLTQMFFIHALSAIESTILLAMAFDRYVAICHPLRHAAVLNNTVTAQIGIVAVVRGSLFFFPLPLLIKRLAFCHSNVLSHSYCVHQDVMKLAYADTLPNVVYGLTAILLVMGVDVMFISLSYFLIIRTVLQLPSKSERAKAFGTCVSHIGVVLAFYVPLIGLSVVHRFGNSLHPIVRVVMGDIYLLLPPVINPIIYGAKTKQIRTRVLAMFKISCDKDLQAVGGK
Protocol: To identify whether the binding of acetate and OR51E2 can be utilized in the diagnosis of thyroid cancer, the MZ-CRC-1 cell line (parafollicular C-cells) was treated with 100 μM of acetate, and the cells were stained after 1, 5 and 30 minutes to identify OR51E2.

parafollicular C-cells = parafollicular C-cells treated with acetate at each concentration (FIG. 5A)
Protocol: (§1) Thereafter, the parafollicular C-cells were treated with acetate at each concentration and cultured, and then using a bromodeoxyuridine (BrdU) cell proliferation assay kit (Millipore, Mass.), the degree of BrdU binding was analyzed according to the manufacturer's protocol.

OR51E2 [2] = molecular target: T1, OR51E2
Protocol: as §1

OR51E2 [3] = molecular target: T1, OR51E2; assay: acetate binding competition experiment (CPM); set-up: OR51E1 (olfactory receptor 51E1) and OR51E2 were highly expressed in MZ-CRC1 and TT cell lines as medullary thyroid cancer cell lines; endogenous in cells; host or cells: MZ-CRC-1 and TT medullary thyroid cancer cell lines; details: MZ-CRC-1 and TT cell lines
Protocol: MZ-CRC-1 and TT cell lines as medullary thyroid cancer cell lines were treated with 100 μM cold acetate (acetate labeled with no radioactive isotope), and then treated with ^11C-acetate at concentrations of 2, 5, 10, 20, 40 and 60 μCi to measure CPM. In addition, MZ-CRC-1 and TT cell lines were treated with ^11C-acetate (20 μCi), and then treated with cold acetate at concentrations of 0, 20, 40, 80, 150 and 300 μM to measure CPM.

OR51E2 [4] = molecular target: OR51E2 (Mus musculus, UniProt Q8VBV9); details: wild-type mice, 30 minutes after injecting 100 μl of 99% acetate (FIG. 7B)
Protocol: (§2) C57/BL6 mice in which a green fluorescent protein (GFP) was inserted into the OR51E2 gene loci were purchased (Jackson Laboratory, USA) and reared under sterile conditions. Through a week of acclimatization, the mice were each sacrificed 30 minutes after injecting 100 μl of 99% acetate thereto to separate the thyroid gland and serum. The thyroid gland was stained with calcitonin and a GFP antibody, respectively, and the calcitonin concentration was measured in the separated serum.

OR51E2 [5] = details: OR51E2 knockout mice, 30 minutes after injecting 100 μl of 99% acetate (FIG. 7B)
Protocol: as §2

[6] = system: CREB (cAMP response element-binding protein); details: parafollicular C-cell line, acetate concentration series (FIG. 4B)
Protocol: (§3) Since OR51E1 and OR51E2 were highly expressed in the medullary thyroid cancer cell lines, MZ-CRC1 and TT cell lines as parafollicular C-cell lines were treated with acetate, nonanoic acid, propionate and azelaic acid as olfactory receptor ligands by 100 μM each to identify their influences.

intracellular cAMP = details: parafollicular C-cell line, acetate treatment (FIG. 4C)
Protocol: as §3

p42/44 MAPK = system: p42/44 MAPK
Protocol: as §3

OR51E2 [7] = assay: CPM after ^11C-acetate treatment of OR51E2 knockout mice; type: in vivo, mouse; details: OR51E2 knockout mice compared with wild-type mice (FIG. 8D)
MZ-CRC-1 cell line [8] = assay: serum calcitonin in nude mice with MZ-CRC-1 tumor after ^11C-acetate; type: in vivo, mouse; details: nude mice (BALB/c) with tumor from MZ-CRC-1 cell line (FIG. 11B)
Protocol: (§4) Nude mice (BALB/c) were administered with the MZ-CRC-1 cell line (4×10^6 cells/mouse) to induce tumorigenesis, and administered with ^11C-acetate, followed by performing positron emission tomography (PET).

OR51E2 [9] = molecular target: T1, OR51E2; assay: ^11C-acetate positron emission and CPM in thyroid cancer cell lines; type: cell-based; set-up: OR51E1 (olfactory receptor 51E1) and OR51E2 were highly expressed in MZ-CRC1 and TT cell lines as medullary thyroid cancer cell lines; endogenous in cells; host or cells: MZ-CRC-1 and TT medullary thyroid cancer cell lines
Protocol: Thyroid cancer cell lines having different origins were treated with ^11C-acetate labeled with a radioactive isotope (20 μCi), and the degree of positron emission was identified. A control group was treated with F-18-fluorodeoxyglucose as the most commonly used radiopharmaceutical.

MZ-CRC-1 cell line [10] = assay: positron emission tomography (PET) of nude mice with MZ-CRC-1 tumor; type: in vivo, mouse; details: nude mice (BALB/c) with tumor from MZ-CRC-1 cell line (FIG. 11A)
Protocol: as §4

Chain of OR51E2 (Mus musculus, UniProt Q8VBV9) (Q8VBV9 whole entry): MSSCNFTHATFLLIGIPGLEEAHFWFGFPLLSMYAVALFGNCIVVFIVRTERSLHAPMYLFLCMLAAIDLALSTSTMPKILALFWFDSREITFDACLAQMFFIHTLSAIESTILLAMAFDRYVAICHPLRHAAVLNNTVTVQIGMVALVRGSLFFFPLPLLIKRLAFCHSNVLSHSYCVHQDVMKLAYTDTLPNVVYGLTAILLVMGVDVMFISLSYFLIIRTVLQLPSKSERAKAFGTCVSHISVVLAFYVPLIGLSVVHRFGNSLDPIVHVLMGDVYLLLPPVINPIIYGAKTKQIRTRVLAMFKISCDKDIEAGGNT

| location of OR51E2 (staining) (OR51E2 [1]) | release of calcitonin (OR51E2 [2]; expression of OR51E2 suppressed with siRNA, then acetate treatment (FIG. 5C)) | intracellular expression level of calcitonin (OR51E2 [2]; parafollicular C-cell line, acetate treatment (FIG. 5B)) | level of calcitonin in the serum (OR51E2 [4]) | level of positron emission (OR51E2 [9]; medullary thyroid cancer cell line versus other thyroid cancer cell lines, 20 μCi (FIG. 8A)) | CPM (counter per minute) (OR51E2 [9]; medullary thyroid cancer cell line versus other thyroid cancer cell lines, 20 μCi (FIG. 8B)) | CPM (OR51E2 [9]; medullary thyroid cancer cell line with OR51E2 expression suppressed by siOR51E2 (FIG. 8C)) | Structure (SMILES) | cell proliferation (BrdU binding level) (parafollicular C-cells) | CPM (OR51E2 [3]; first ^11C-acetate 20 μCi, then cold acetate 0, 20, 40, 80, 150 and 300 μM (FIG. 9C, 9D)) | level of calcitonin in the serum (OR51E2 [5]) | phosphorylation level of CREB versus concentration [6] | level of intracellular cAMP (intracellular cAMP) | level of phosphorylation of p42/44 MAPK (p42/44 MAPK; MZ-CRC1 and TT cell lines, ligands 100 μM each (FIG. 4A)) | phosphorylation level of p42/44 MAPK versus concentration (p42/44 MAPK; parafollicular C-cell line, acetate concentration series (FIG. 4B)) | CPM (OR51E2 [7]) | calcitonin concentration in the serum (MZ-CRC-1 cell line [8]) | CPM (OR51E2 [3]; first 100 μM cold acetate, then ^11C-acetate 2, 5, 10, 20, 40 and 60 μCi (FIG. 9A, 9B)) | PET tracer accumulation (MZ-CRC-1 cell line [10]) |
| --- | --- | --- | --- | --- | --- | --- | --- | --- | --- | --- | --- | --- | --- | --- | --- | --- | --- | --- |
| migrated into the cells | not increased | increased | increased | – | – | – | CC(=O)O [acetate] | increased | decreased as the treatment concentration increased | maintained almost constant | increased in proportion to the acetate treatment concentration | increased | increased | increased in proportion to the acetate treatment concentration | – | – | – | – |
| – | – | – | – | high | highest | did not increase | C[11C](=O)O [^11C-acetate] | – | – | – | – | – | – | – | did not increase | increased | increased as the treatment concentration increased | accumulated in the tumor-producing sites |
